# Results: article PMC10547168, “Cell cycle-dependent organization of a bacterial centromere through multi-layered regulation of the ParABS system” (PLOS Genetics, 2023)
# Target: T1, ParBBb (Bdellovibrio bacteriovorus, UniProt Q6MGM0)
# T1 construct: gene parB; C-terminal 6xHis tag kept (pET21), expressed in E. coli BL21(DE3); HisTrap and Superdex 75 purified; dimer
# T1 sequence (Q6MGM0 1-337): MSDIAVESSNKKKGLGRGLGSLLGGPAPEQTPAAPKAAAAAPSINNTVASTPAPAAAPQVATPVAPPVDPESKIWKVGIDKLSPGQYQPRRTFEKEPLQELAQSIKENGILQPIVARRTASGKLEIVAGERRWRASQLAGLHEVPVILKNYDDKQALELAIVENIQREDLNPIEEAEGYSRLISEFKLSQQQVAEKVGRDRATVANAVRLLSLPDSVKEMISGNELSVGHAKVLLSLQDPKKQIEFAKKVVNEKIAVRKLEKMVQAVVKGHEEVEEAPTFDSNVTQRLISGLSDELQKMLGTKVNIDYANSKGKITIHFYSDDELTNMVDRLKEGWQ
# Test: EnzChek phosphate release assay (A360)
# Type: biochemical
# Settings: 1 mM NTP, 1 uM ParBBb, 22 bp parSBb DNA duplex, Mg2+, Tris pH 8.0, 25 °C
smiles,measurement,value
Nc1ccn([C@@H]2O[C@H](COP(=O)(O)OP(=O)(O)OP(=O)(O)O)[C@@H](O)[C@H]2O)c(=O)n1 [CTP],EnzChek phosphate release assay (A360),ParBBb hydrolyses CTP but no other NTPs in the presence of parSBb
